Results from patent US7407934B2, “Methods for regulating postprandial blood glucose” (Amylin Pharmaceuticals, Inc., priority 1993, dated 2008).
Each block holds one compound with its values, some of them ahead of it.

Experiments:
[1] = Uptake of labelled oral glucose load in corpulent LA/N rats (Example 6); format: in vivo, rat
Procedure: Uptake of an ingested glucose load was measured in 11 conscious 24-hr fasted corpulent (500-600 g) LA/N rats on 2 occasions, 14 days apart.

[2] = Post-prandial plasma glucose after IV bolus or IV infusion in insulin-dependent diabetic subjects (Example 2); format: in vivo, human
Text: (§1) Subjects in each dose group underwent a two period crossover to examine intravenous (IV) bolus versus IV infusion of drug. Each period consisted of a three-day confinement to the study unit. On each occasion, the initial day of confinement was allowed for acclimatization to the study unit. The second and third days constituted an imbedded crossover of placebo versus active medication. […] An imbedded cross-over design for the administration of drug and placebo on Days 2 and 3 of this admission was employed in a manner similar to that used during the first admission. The six subjects assigned to the placebo group received placebo on each of the study days. On study days, intravenous catheters were inserted at least 30 minutes prior to the start of the study. 15 minutes before dosing, the subjects took their usual insulin dose via subcutaneous injection. […] The infusion rate was designed to administer the assigned amount of drug over the two hour period. Thirty minutes later, the subjects ingested their normal breakfasts. Blood samples were taken between −30 and 300 minutes for the measurement of plasma.

[3] = set-up: species or system human; settings: in vivo, iv
Text: as §1

[4] = Plasma glucose after Sustacal meal or IV glucose load during AC-0137 infusion (Example 3); format: in vivo, human
Text: Twenty-seven subjects with insulin-dependent diabetes mellitus were allocated into a combination of two dose level groups and two types of tolerance tests.
Subjects remained in the clinic for three days. On the first day of confinement, the subjects were acclimatized to the clinic. […] In addition, subjects received either a Sustacal® meal or iv glucose tolerance test, as determined by the group assignment.
During the first day, the subject's usual insulin and caloric intake was stabilized and each subject then followed this insulin and dietary regimen throughout confinement in the clinic.
at approximately, 0700 h (T=0), the continuous infusion of study medication was initiated. At T=30 minutes, the subjects administered their usual AM dose of insulin. […] The type of tolerance test was determined according to the randomization schedule. […] Study drug administration was discontinued at t=300 minutes.
On the morning of the third day, iv lines were again placed in a similar manner as on Day 2. Subjects administered their usual pre-breakfast dose of insulin as on Day 2. […] An identical standardized Sustacal® meal tolerance or iv glucose load as they received on Day 2 was again administered. At the end of the sampling period the iv lines were withdrawn.

[5] = 14-day study, Sustacal meal tolerance test glucose (Example 4); format: in vivo, human; settings: 14 days
Procedure: 72 subjects with insulin-dependent diabetes mellitus participated in a 14-day clinical trial. Each subject was randomly assigned to one of four treatment groups, receiving placebo, 30, 100 or 300 μg tripro-amylin by subcutaneous injection three times a day for 14 days. The subjects also remained on their usual insulin regimen throughout the study. On days 1 (baseline), 7 and 14, standardized meal tolerance tests were performed.
For the standardized meal tolerance tests, subjects were given a Sustacal® liquid meal (360 ml containing 360 calories) at 0800 h. Subjects abstained from food or drink (except for water) from 2200 h the night before. […] For a baseline test, on day 1, tripro-amylin (or placebo) was not administered until after completion of the test. On day 7 and 14, tripro-amylin (or placebo) was administered in a separate injection at the same time as the usual morning insulin dose. Samples for determination of serum glucose levels were drawn at −30, 0, 30, 60, 120 and 180 minutes relative to the start of the challenge. Time zero was considered to be the time when the subject began to drink the Sustacal® meal.

[6] = Oral glucose tolerance test in dogs during amylin infusion (Example 1); format: in vivo, dog
Procedure: Mongrel dogs (9 males, 12-17 kg wt. range) were used for this study. All animals were fasted overnight prior to each study. Each animal served as its own control for all protocols. Animals were equilibrated for 30-60 minutes prior to the start of each protocol.
25% glucose (1 gm/kg) was administered by mouth at t=0 minutes. […] Samples for insulin, glucose and lactate were obtained at 15 minutes intervals from t=−45 to t=180 minutes.

Compound: ac-^10N^32Y8-32-salmon calcitonin [AC-0187]
- Acceleration of appearance of glucose-derived tritium in plasma ([1]; 3 μg s.c. 3 min before gavage, 15 minutes post-gavage (P<0.02)): 48%
- Acceleration of appearance of glucose-derived tritium in plasma ([1]; 3 μg s.c., 30 minutes post-gavage (P<0.001)): 45%
- Plasma glucose ([1]; 15 minutes after gavage with 0.5 g glucose, rise from 5.89±0.17): 8.33 ± 0.28 mM
- Plasma glucose ([1]; 60 minutes after glucose gavage): 6.89 ± 0.28 mM

- Disappearance of drug from plasma compartment [3]: apparent first-order kinetics
Compound: CC[C@H](C)[C@H](NC(=O)[C@@H]1CCCN1C(=O)CNC(=O)[C@H](Cc1ccccc1)NC(=O)[C@H](CC(N)=O)NC(=O)[C@H](CC(N)=O)NC(=O)[C@H](CO)NC(=O)[C@H](CO)NC(=O)[C@H](Cc1c[nH]cn1)NC(=O)[C@@H](NC(=O)[C@H](CC(C)C)NC(=O)[C@H](Cc1ccccc1)NC(=O)[C@H](CC(N)=O)NC(=O)[C@H](C)NC(=O)[C@H](CC(C)C)NC(=O)[C@H](CCCNC(=N)N)NC(=O)[C@H](CCC(N)=O)NC(=O)[C@@H](NC(=O)[C@H](C)NC(=O)[C@@H]1CSSC[C@H](NC(=O)[C@@H](N)CCCCN)C(=O)N[C@@H](CC(N)=O)C(=O)N[C@@H]([C@@H](C)O)C(=O)N[C@@H](C)C(=O)N[C@@H]([C@@H](C)O)C(=O)N1)[C@@H](C)O)C(C)C)C(=O)N[C@@H](CC(C)C)C(=O)N1CCC[C@H]1C(=O)N1CCC[C@H]1C(=O)N[C@H](C(=O)N[C@@H](CC(N)=O)C(=O)N[C@H](C(=O)NCC(=O)N[C@@H](CO)C(=O)N[C@@H](CC(N)=O)C(=O)N[C@H](C(=O)N[C@@H](Cc1ccc(O)cc1)C(N)=O)[C@@H](C)O)C(C)C)[C@@H](C)O [^25,28,29Pro-h-Amylin]
- Post-prandial glucose levels ([2]; IV bolus 30 μg): no apparent change in glucose levels
- Post-prandial rise in glucose ([2]; IV bolus 100 μg): clearly delayed and less pronounced
- Post-prandial rise in glucose ([2]; IV bolus 300 μg): essentially eliminated
- Post-prandial rise in glucose ([2]; IV infusion 15 μg/hr): highly suggestive of an effect
- Post-prandial rise in glucose ([2]; IV infusion 50 and 150 μg/hr): striking
- Post-prandial hyperglycemia ([2]; continuous 2-hour IV infusion, 15-150 μg/hr): dose-dependent reduction in post-prandial hyperglycemia
- Plasma glucose levels vs placebo ([4]; IV glucose load 300 mg/kg, 50 μg/hr IV infusion): not significantly different from placebo-treated subjects
- Plasma glucose levels vs placebo ([4]; Sustacal meal, 25 μg/hr or 50 μg/hr IV infusion): reduced
- Post-meal glucose: Mean of changes in AUC ([5]; 30 micrograms s.c. 3 times daily): −6,645 mb/dl * min.
- Post-meal glucose: Mean of changes in AUC ([5]; 100 micrograms s.c. 3 times daily): −6,412 mb/dl * min.
- Post-meal glucose: Mean of changes in AUC ([5]; 300 micrograms s.c. 3 times daily): −7,316 mb/dl * min.

Compound: acetyl-^11,18Arg, ^30Arg, ^32Tyr-^9-32calcitonin (salmon) [AC-0253]
- Changes in plasma glucose, antagonist alone ([6]; AC-0253 alone): no effect
- Reversal of amylin-induced changes in plasma glucose ([6]; AC-0253 up to 1500 pmol/kg/min with amylin 50 pmol/kg/min): does not completely reverse the effects of amylin
- Effects on plasma lactate ([6]; oral glucose load): unremarkable
